The source of these data is patent US5214040A, “Nonsaditive antihistaminics derived from benzimidazoles” (Laboratorios del Dr. Esteve, S.A., priority 1991, dated 1993).

Data set [1] can be described thus: Sedative effect: potentiation of pentobarbital-induced duration of sleep. The settings on record: for potentiation of pentobarbital-induced duration of sleep (in words): orally; for Potentiation of duration of sleep: p.o., vs control group with pentobarbital 35 mg/kg, s.c.
Protocol: The studied products were administered orally. […] The duration of sleep was compared with a control group of animals treated only with sodium pentobarbital.
Another data set has as its system rats. The data set is described as follows: Sedative effect: Irwin test (behaviour of rats). It is filed as in vivo. The settings on record: i.p.; for Atax. (ataxia) / pas. (passivity, sedation, prostration): score 0 to 3, 1, 2 and 3 hours after treatment. As for the experimental part:
Pas.: Passivity, sedation, prostration. Quantitative evaluation between 0 and 3. They are performed 1, 2 and 3 hours after the treatment.
Atax.: Ataxia, the modifications of coordination in movement are evaluated. The are evaluated between 0 and 3. They are performed 1, 2 and 3 hours after the treatment.

The test system of data set [2] is 48/80-induced death in rats. Put plainly: Protection against mortality caused by compound 48/80 in rats (antihistaminic activity in vivo). The settings on record: Rattus norvegicus, ip, 60 min before 48/80 (0.5 mg/kg, i.v.), survival 4 hours after, read-out: ED-50 (protection from 48/80-induced death). As for the experimental part: The antihistaminic activity was studied by determining the protection against the mortality caused by the product 48/80 in rats. This trial was performed according to the technique described by C.
The activity of the products is studied at several doses in order to determine the dose which is capable of protecting 50% of the animals (ED-50).
Finally, the antihistaminic activity of the product of Example 1 is indicated.

On to `CN(C)CCOC(c1ccccc1)c1ccccc1` [Difenhidramine, reference compound], for which, in data set [1] (at a dose of 20 mg/kg), the “potentiation of pentobarbital-induced duration of sleep (in words)” value is listed as “significantly potentiates”. Moreover, in the data set with rats (dose 40 mg/kg), the “Atax. (ataxia)” value was found to be 0.9 and the “pas. (passivity, sedation, prostration)” value is given as 0. Moreover, the ED50 in data set [2] turned out to be 5.4 mg/kg.

For `CCOCCn1c(CN2CCCN(CCCCn3cccn3)CC2)nc2ccccc21` [Example 1, 1-(2-ethoxyethyl)-2-{4-[4-(pyrazol-1-yl)butyl]homopiperazin-1-ylmethyl}benzimidazole], the “Potentiation of duration of sleep” value was 8% in data set [1] (dose 80 mg/kg) and 1% in data set [1] (dose 160 mg/kg). In data set [1] (even at 160 mg/kg, the maximum dose tested), the “potentiation of pentobarbital-induced duration of sleep (in words)” value was “does not potentiate”. In the data set on rats (Irwin test, rats), the “sedative effect (in words)” value was “very weak sedative effect”. For the same compound, in the data set on rats (dose 80 mg/kg), the “Atax. (ataxia)” value was determined as 0.2. Also, the “pas. (passivity, sedation, prostration)” value in the data set on rats (dose 80 mg/kg) was 0. For the same compound, the ED50 in data set [2] amounted to 0.04 mg/kg.
